# Measurements from patent publication US20200397796A1, “METHODS OF TREATMENT OF CANCER COMPRISING CHK1 INHIBITORS” (SIERRA ONCOLOGY, INC., priority 2018, published 2020).
# How the values were obtained:
# HT29 human colon cancer = assay: In vivo efficacy, HT29 xenograft model; set-up: species or system mouse; details: data not shown
# Description: (§1) A program of in vivo efficacy studies was performed to assess the activity of SRA737 in combination with genotoxic chemotherapy and targeted agents, and as monotherapy.
# (§2) One of these models also carried a MYCN amplification. A fourth HGSOC PDX model with partial resistance to PARPi was also sensitive to high dose SRA737 monotherapy.
# Pan02 = assay: In vivo efficacy, Pan02 syngeneic mouse model; details: in combination with a PD1/PD-L1 inhibitor; data not shown
# Description: as §1, §2
# [1] = system: CHK1 S296 autophosphorylation; assay: Gemcitabine induced CHK1 S296 autophosphorylation in HT29 tumor xenografts (western blotting); type: in vivo, mouse; details: oral, 24 hours following gemcitabine 100 mg/kg IV
# Description: The effect of SRA737 on Gemcitabine induced CHK1 S296 autophosphorylation was assessed as described in Walton et al. (Oncotarget. 2016 Jan. 19; 7(3): 2329-2342), herein incorporated by reference for all it teaches. Briefly, mice bearing HT29 tumor xenografts were administered (i) vehicle control or (ii) gemcitabine (100 mg/kg in saline, IV) or (iii) a combination of SRA737 (12.5, 25, 50 or 100 mg/kg in DTPW, oral) and gemcitabine (100 mg/kg) with SRA737 administered 24 hours following gemcitabine administration (n=3 per time point per treatment). […] Exposure in the tumor was greater than 10-fold higher than in plasma. The circulating plasma concentration at this 24-hour timepoint corresponded to a free drug concentration of approximately 6 nM (2 ng/mL) based on plasma protein binding in mice of 94%.
# [2] = Plasma protein binding, ultracentrifugation, minipig; type: in vitro ADME; details: for Percentage Bound / Percentage Free: Minipig plasma
# Description: The PK of SRA737 have been determined in the mouse, rat, dog and monkey following oral and IV administration (Table 3). […] An acceptable terminal elimination t1/2 was also observed in each species. […] The plasma protein binding of SRA737 at 1 and 10 μM was examined in mouse, minipig, monkey and human plasma using ultracentrifugation and in dog plasma (10 μM) using rapid equilibrium dialysis.
# rat hepatocytes = assay: Stability in cryopreserved hepatocytes, rat; type: in vitro ADME; details: 10 μM, after 4 hours of incubation
# Description: The formation of SRA737-related metabolites was determined in cryopreserved hepatocytes from human, mouse, rat, dog, minipig and monkey samples after incubation with SRA737 at a nominal concentration of 10 μM for up to 4 hours. […] In the human hepatocyte preparation, approximately 67% of the parent remained after 4 hours of incubation compared to 75% and 7% in the rat and minipig preparations, respectively. Eight human SRA737 metabolites were observed. All SRA737 metabolites formed by human hepatocytes were also formed by monkey hepatocytes. Six metabolites were present at equal or greater abundance in the monkey.
# [3] = Excretion in urine and feces, mice; type: in vivo, mouse; details: 24-hour collection
# Description: The excretion of SRA737 has been studied in mice and rats administered SRA737 at either 5 mg/kg IV or 10 mg/kg orally. Urine and feces were collected for a 24-hour period after dosing. In mice, renal excretion of intact SRA737 was consistently low (less than 10% of dose) after both oral and IV administration. Following IV administration of SRA737, less than 8% of the dose was recovered as intact drug in the feces while after oral administration this figure was less than 3%. Excretion of intact SRA737 was lower in the rat than in the mouse with <1% of dose excreted renally over 24 hours and less than 1.5% of dose excreted into the feces over 24 hours.
# CYP 2C19 = CYP 2C19 (Homo sapiens, UniProt P33261); assay: CYP inhibition, 2C19; type: in vitro ADME; details: highest concentration investigated
# CYP1A2 = CYP1A2 induction in vitro; type: in vitro ADME; details: positive control omeprazole, concentration dependent
# Chk1 = target: T1, Chk1 (Homo sapiens, UniProt O14757); details: limited off-target activity against other kinases; Walton et al.; cited from earlier work
# T1 construct: endogenous in cells
# T1 sequence (O14757 1-476): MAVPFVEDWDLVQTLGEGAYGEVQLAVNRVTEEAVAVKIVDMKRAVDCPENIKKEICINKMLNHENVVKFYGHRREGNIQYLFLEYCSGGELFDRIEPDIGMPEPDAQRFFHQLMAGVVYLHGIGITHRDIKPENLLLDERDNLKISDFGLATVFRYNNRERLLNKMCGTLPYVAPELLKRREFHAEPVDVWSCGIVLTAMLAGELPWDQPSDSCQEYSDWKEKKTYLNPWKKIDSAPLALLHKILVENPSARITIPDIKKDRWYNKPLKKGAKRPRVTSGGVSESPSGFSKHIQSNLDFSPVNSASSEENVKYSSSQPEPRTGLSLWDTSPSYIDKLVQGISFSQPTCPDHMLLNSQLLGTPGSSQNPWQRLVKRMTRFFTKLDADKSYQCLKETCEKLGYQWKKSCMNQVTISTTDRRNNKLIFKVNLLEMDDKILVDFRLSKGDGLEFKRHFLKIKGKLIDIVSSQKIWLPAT
# Chain of CYP 2C19 (P33261 whole entry): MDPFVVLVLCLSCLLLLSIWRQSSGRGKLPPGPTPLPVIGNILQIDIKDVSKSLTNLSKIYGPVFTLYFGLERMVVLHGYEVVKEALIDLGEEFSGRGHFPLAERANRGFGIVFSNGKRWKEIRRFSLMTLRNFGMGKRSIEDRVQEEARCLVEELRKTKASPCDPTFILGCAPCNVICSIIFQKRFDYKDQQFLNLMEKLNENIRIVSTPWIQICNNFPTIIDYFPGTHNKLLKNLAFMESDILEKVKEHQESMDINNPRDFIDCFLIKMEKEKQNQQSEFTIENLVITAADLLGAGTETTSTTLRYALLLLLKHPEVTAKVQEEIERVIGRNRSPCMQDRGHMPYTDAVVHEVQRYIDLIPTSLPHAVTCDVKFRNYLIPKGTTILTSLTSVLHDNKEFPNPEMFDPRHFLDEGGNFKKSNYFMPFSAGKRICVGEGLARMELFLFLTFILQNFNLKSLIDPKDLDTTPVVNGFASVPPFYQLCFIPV
smiles,measurement,setting,value
"N#Cc1cnc(Nc2cc(NCC3CNCCO3)c(C(F)(F)F)cn2)cn1 (centres unmarked) [SRA737, 5-[[4-[[morpholin-2-yl]methylamino]-5-(trifluoromethyl)-2-pyridyl]amino]pyrazine-2-carbonitrile]",antitumor activity,HT29 human colon cancer; in combination with standard-dose gemcitabine,"Significant, dose-dependent antitumor activity"
same,synergy,HT29 human colon cancer; with irinotecan,Synergy
same,synergy,HT29 human colon cancer; with low-dose gemcitabine,Synergy
same,antitumor activity,Pan02,Significant antitumor activity
same,SRA737 doses at which inhibition of pS296 Chk1 was observed,[1],greater than or equal to 12.5 mg/kg
same,Percentage Bound,[2]; 1 μM,85.2%
same,Percentage Free,[2]; 1 μM,14.9%
same,Percentage Bound,[2]; 10 μM,75.5%
same,Percentage Free,[2]; 10 μM,24.5%
same,fraction unbound,"[2]; plasma, minipig, summary of 1 and 10 μM",~0.2
same,parent remained,rat hepatocytes,75%
same,dose recovered as intact drug in the feces,[3]; IV 5 mg/kg,less than 8 % of the dose
same,renal excretion of intact SRA737,[3]; after both oral (10 mg/kg) and IV (5 mg/kg),less than 10 % of dose
same,dose recovered as intact drug in the feces,[3]; oral 10 mg/kg,less than 3 % of the dose
same,IC50,CYP 2C19,10 to 50 µM
same,induction of CYP1A2,CYP1A2,< 10 % positive control
same,inhibitor of Chk1,Chk1,potent and selective inhibitor of Chk1
